row,SMILES,melting point
1,OC(c1ccccc1)C1CCN(CCCc2ccccc2)CC1 (stereo not drawn),87 to 88 °C
2,O=[N+]([O-])c1ccc2[nH]cc(Cn3ccnc3)c2c1,230 to 232 °C
3,CCCCCC(=O)c1ncc(S(N)(=O)=O)s1,124 to 125 °C
4,CCN(CC)CCOc1ccc(C(O)(CC)c2cc(C)ccc2C)cc1 (stereo not drawn),89 to 90 °C
5,Cc1ccc(=O)n(-c2cc(F)c(C#N)cc2F)n1,159 °C
6,O=C(c1ccccc1)N1C=CC(c2c(-c3ccc(F)cc3)nc3n2CCS3)C=C1,188 to 189 °C
7,CCOC(=O)N1CCN(C(=CNc2cccc(OC)c2)C(=O)OC)CC1,120 to 122 °C
8,COc1ccc(COCc2nc(C(C)C)c(Sc3cc(Cl)cc(Cl)c3)n2CC(F)(F)F)cc1,134 to 136 °C
9,Nc1cc(C2CC2)nn1C(=O)Nc1ccccc1,97 to 99 °C
10,O=C(C=Cc1ccc(CNCC2CCCC2)cc1)Nc1ccc(-c2ccc(Cl)cc2)cc1,209 to 210 °C
11,Cc1c(Cl)nc(NC=O)nc1Cl,123 to 124 °C
12,CC(=O)NS(=O)(=O)c1ccc(-n2sc3ccccc3c2=O)cc1,254 to 255 °C
13,Cc1onc(-c2ccc(Cl)o2)c1-c1ccccc1,71 to 73 °C
14,CC1CC(C)(C)OOC(C)(CCC(=O)NNC(=O)CCC(=O)O)O1 (stereo not drawn),122 to 126 °C
15,COc1cc2c(cc1OC)CC(=O)NC(=O)C2,235 °C
16,Cc1cc(SC(C)C)c(NC(=O)CCCCCCSc2nc3ccccc3[nH]2)c(SC(C)C)n1,118 to 121 °C
17,CN1CCC(c2cc3ccccc3c(=O)[nH]2)CC1,255 to 257 °C
18,CCOC(=O)c1cc2sc(N=CN(C)C)c(C#N)c2s1,168 °C

row,SMILES,melting point
1,Cc1ccc(Cn2c(NC3CCN(C)CC3)nc3cccnc32)o1,131 °C
2,CCCOc1ccc(N(C)C)cc1-c1ncc(-c2nnn[nH]2)c(=O)[nH]1,258 to 259 °C
3,CC(C)Oc1ccc(-n2c(C(=O)NCC(=O)O)c(Cl)c3cc(Oc4ccc(C(F)(F)F)cc4)ccc32)cc1,94 to 96 °C
4,O=C(O)CCCNC(=O)COc1ccccc1,91 to 94 °C
5,CCNc1cccnc1N1CCN(C(=O)c2ccc(C(=O)OC)cn2)CC1,80 to 81 °C
6,COc1cc(OC)nc(C2OC(=O)c3c(-c4cccs4)ccnc32)n1 (stereo not drawn),120 to 123 °C
7,O=C(CCCCC(=O)Oc1cc(O)cc(O)c1)Oc1cc(O)cc(O)c1,251 to 255 °C
8,CC(C)(C)OC(=O)NCCNC(=O)c1nc(Cl)sc1-c1ccccc1,114 to 116 °C
9,COc1ccccc1Oc1c(N=[N+]=[N-])nc(N2CCOCC2)nc1OCCOCc1ccccc1,146 to 148 °C
10,C/C(Cl)=C/CC(C)(C(=O)O)C(=O)O,99 to 101 °C
11,Cc1nnc(-c2ccc3occ(C(=O)N4CCOCC4)c3c2)o1,168 to 169 °C
12,CCNC(=S)NS(=O)(=O)c1cnccc1NC1CCCCCCC1,196 to 198 °C
13,Cc1cc(Cl)ccc1OCC(=O)N1Cc2ccc(C(=O)C(Cl)(Cl)Cl)n2Cc2ccccc21,156 to 158 °C
14,COc1cc2nc(N)nc(-c3ccc(O)c(C(=O)O)c3)c2cc1OC,> 300 °C
15,CC(=O)Nc1nc(-c2ccc(S(=O)(=O)CCO)cc2)cs1,258 to 260 °C
16,CCOC(=O)c1ccc(CN2CCN(C3=NC4(C=CC(=O)C=C4)C(c4ccccc4)=C3)CC2)cc1,199 °C
17,Cc1ocnc1-c1cc(C(C)(C)C)c(O)c(C(C)(C)C)c1,105 to 107 °C

# Continued, values first:
row,melting point,SMILES
1,163 to 164 °C,CCOC(=O)c1c(Cn2nccn2)nc2cc(OC)c(OC)cc2c1-c1ccc(OC)c(OC)c1
2,156 °C,Cn1cc(-c2cnc3c(c2)N(Cc2cc(Cl)ccc2C(F)(F)F)CCN3)cn1
3,183 to 185 °C,Nc1ncnc2c1ncn2[C@H]1CO[C@@H](CO)C1
4,169 to 170 °C,Nc1ncnc2c1c(I)cn2COCCO
5,124 to 127 °C,CC(C)(C(=O)O)C(c1ccc(OCc2ccc3ccccc3n2)cc1)c1ccc(OCc2ccc3ccccc3n2)cc1
6,116 to 120 °C,Cc1ccc2c(c1)c(-c1ccc(F)cc1)cn2N
7,52 to 55 °C,Cc1cc(Oc2ccc(Cl)cc2Cl)ccc1C#N
8,110 to 111 °C,CCCCCCC(C(C)O)n1cnc(C#N)c1N (stereo not drawn)
9,196 °C,CCCCc1nc(S(C)(=O)=O)c(C(=O)O)n1Cc1ccc(-c2ccccc2C(=O)O)cc1
10,93 to 94 °C,Cc1oc(-c2ccccc2)nc1CCOc1ccc(CC(Br)C#N)cn1 (stereo not drawn)
11,80 to 82 °C,CC(NC(Nc1cccc(C#N)c1)=C(C#N)S(=O)(=O)c1ccc(Cl)cc1)C(C)(C)C (stereo not drawn)
12,117 to 119 °C,Cn1nc(-c2c(F)cccc2Cl)nc1-c1ccc(F)c(-c2ccc(OC(F)(F)F)cc2)c1
13,142 to 151 °C,CC(=O)OC1CSC(Oc2cncc(-c3ccc(C#N)nc3)c2)C(OC(C)=O)C1OC(C)=O (stereo not drawn)
14,93 to 94 °C,CCOC(=O)/C=C/c1cn(Cc2ccc(Oc3ccccc3)cc2)nc1OCc1nc(-c2ccccc2)oc1C
15,178 to 180 °C,O=C(Nc1cn(C2CCCCO2)nc1C(=O)NCCNc1ccccn1)c1ccccn1 (stereo not drawn)
16,181 to 182 °C,CC(C)c1ccc2c(c1)c(Sc1ccccc1)c(C(C)C(=O)O)n2Cc1ccc(Cl)cc1 (stereo not drawn)
17,178 to 180 °C,O=C(NCCNCC(O)COc1ccccc1)c1cc(O)ccc1O (stereo not drawn)
18,147 °C,Cc1ccc(-c2cc(N)nn2C(=O)OC(C)(C)C)cc1
19,280 to 284 °C,COc1ccc2c(c1)Cc1cc(=O)[nH]nc1-2

row,melting point,SMILES
1,188 °C,CC#CCOc1ccc(S(=O)C(C(=O)NO)C2CCCCC2)cc1 (stereo not drawn)
2,153 to 156 °C,O=c1c2ccccc2oc2cc(OCCO)c(Cl)cc12
3,218 to 220 °C,CC(=O)N(C)c1cccc(-c2nc(=O)c3ccccc3s2)n1
4,218 °C,Cc1ccc(-c2cc(C(F)(F)F)n3ncc(-c4ccncc4)c3n2)cc1C(F)(F)F
5,48 to 49 °C,CCOC(=O)C(Cc1cccc(OCC(F)(F)F)c1)C(=O)c1ccc(F)cc1 (stereo not drawn)
6,84 to 86 °C,CCCc1c(OCC#CCCCC(=O)O)ccc(C(C)=O)c1O
7,163 °C,O=C(O)c1ccc(O)c(I)c1
8,171 to 172 °C,C[C@@H]1O[C@](/C=C/C2CC2)(C(F)(F)F)c2cc(Cl)ccc2NC1=O (relative stereo)
9,164 to 166 °C,O=C(O)CCCOc1ccc(C23CC4CC(CC(C4)C2)C3)cc1Cl
10,240 to 244 °C,CS(=O)(=O)OC1CN(c2c(F)cc3c(=O)c(C(=O)O)cn(C4CC4)c3c2F)C1
11,> 300 °C,Cn1c(=O)c2cnc(N)nc2n(-c2ccccc2)c1=O
12,120 °C,CC(=O)Oc1ccc2cc(NCCCCNC(=O)OC(C)(C)C)c(=O)oc2c1
13,104 to 106 °C,CC1(CCl)CN(C2CCN(c3cccc(OC(F)(F)F)c3)C2=O)C1=O (stereo not drawn)
14,160 to 162 °C,Nc1ccccc1-c1csc2nc(C34CC5CC(CC(C5)C3)C4)cn12
15,142 to 144 °C,Cc1ccc(Cl)cc1N1C(=O)CN(C(C)C)C1=S
16,96 to 98 °C,Oc1ccc(F)nc1I
17,110 to 111 °C,CCOC(OCC)c1cc(Nc2ccc(OC)cc2)c(F)c(-c2ccc(Cl)cc2)n1
18,100 to 101 °C,c1ccc(CN2CC3OC(c4ccccc4)(C2)c2ccccc23)cc1 (stereo not drawn)
19,73 to 75 °C,Cc1cn(C(C)C(=O)N(C)C)nc1-c1cccc(Cl)c1 (stereo not drawn)

# — a melting point compilation (Tetko et al.; mined from patent text by program, amines drawn as free bases though some values may be those of a salt)
